For this assay, the target named is human RIP1 kinase domain (2-375) (Homo sapiens (Human), UniProt Q13546). Briefly: biochemical. Particulars: 50 uM ATP. In kind it is biochemical. The essentials:
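Ki^app comes from Morrison tight-binding fits of fractional activity versus compound concentration. Activity was read as ADP production, via tracer displacement lowering fluorescence polarization (633 nm laser). Conditions: 2 h, 50 nM insect-cell-expressed enzyme, 50 uM ATP, 30 mM MgCl2, 1 mM DTT, 0.5% DMSO, pH 7.5 Hepes.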

Setting [1] is: human RIP1 kinase domain (2-375), Transcreener ADP assay, 2 hours incubation, read-out: RIP1 Ki.
Setting [2] is: Table 3, apparent Ki (Morrison tight-binding fit), 50 nM RIP1 kinase domain, 2 hours incubation, read-out: Ki.
Where [3] appears, read: tight-binding apparent inhibition constant, human RIP1 kinase domain (2-375) 50 nM, 2 hours, read-out: Ki.

Read-outs that look alike come from different tables or passages of the source.

human RIP1 kinase domain (2-375), sequence (Q13546 2-375): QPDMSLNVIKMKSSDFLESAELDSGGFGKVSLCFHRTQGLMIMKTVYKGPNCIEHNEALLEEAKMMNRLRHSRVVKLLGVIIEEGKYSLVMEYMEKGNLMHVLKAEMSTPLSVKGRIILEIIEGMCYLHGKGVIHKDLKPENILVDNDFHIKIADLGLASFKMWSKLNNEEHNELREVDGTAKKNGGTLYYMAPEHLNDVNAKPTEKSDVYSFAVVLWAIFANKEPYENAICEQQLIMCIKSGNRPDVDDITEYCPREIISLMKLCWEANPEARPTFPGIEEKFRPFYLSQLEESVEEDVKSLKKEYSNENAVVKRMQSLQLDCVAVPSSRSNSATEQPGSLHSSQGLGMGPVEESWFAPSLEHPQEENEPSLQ

As to `Cc1cc2n(n1)CC[C@@H](NC(=O)c1nnc(Cc3ccc(F)cc3)[nH]1)C(=O)N2C` [Example 329, (R)—N-(2,4-dimethyl-5-oxo-5,6,7,8-tetrahydro-4H-pyrazolo[1,5-a][1,3]diazepin-6-yl)-5-(4-fluorobenzyl)-4H-1,2,4-triazole-3-carboxamide], the Ki under setting [1] worked out at 3.81 µM.
The same measure, in the same setting: the figure for `Cc1nn2c(c1C)N(C)C(=O)[C@@H](NC(=O)c1nnc(Cc3ccc(F)cc3)[nH]1)CC2` [Example 330, (S)-5-(4-fluorobenzyl)-N-(2,3,4-trimethyl-5-oxo-5,6,7,8-tetrahydro-4H-pyrazolo[1,5-a][1, 3]diazepin-6-yl)-4H-1,2,4-triazole-3-carboxamide] is 0.103 µM; for `CN1C(=O)[C@@H](NC(=O)c2ncn(Cc3cccc(F)c3F)n2)CCn2nc(C3CC3)cc21` [Example 331, (S)—N-(2-cyclopropyl-4-methyl-5-oxo-5,6,7,8-tetrahydro-4H-pyrazolo[1,5-a][1,3]diazepin-6-yl)-1-(2,3-difluorobenzyl)-1H-1,2,4-triazole-3-carboxamide] it is 0.013 µM.
Turning to `CN1C(=O)[C@@H](NC(=O)c2nnc(Cc3ccc(F)cc3)[nH]2)CCn2nc(C3CC3)cc21` [Example 332, (S)—N-(2-cyclopropyl-4-methyl-5-oxo-5,6,7,8-tetrahydro-4H-pyrazolo[1,5-a][1,3]diazepin-6-yl)-5-(4-fluorobenzyl)-4H-1,2,4-triazole-3-carboxamide], the Ki under setting [1] came out at 0.088 µM.
With `Cc1cc2n(n1)CCC(NC(=O)c1ncn(Cc3ccccc3)n1)C(=O)N2C` (stereo not drawn) [Example 333, 1-benzyl-N-(2,4-dimethyl-5-oxo-5,6,7,8-tetrahydro-4H-pyrazolo[1,5-a][1,3]diazepin-6-yl)-1H-1,2,4-triazole-3-carboxamide], under setting [2], the Ki was 0.068 µM.
Regarding `CN1C(=O)[C@@H](NC(=O)c2ncn(Cc3ccccc3)n2)CCn2nccc21` [Example 334, (S)-1-benzyl-N-(4-methyl-5-oxo-5,6,7,8-tetrahydro-4H-pyrazolo[1,5-a][1,3]diazepin-6-yl)-1H-1,2,4-triazole-3-carboxamide], the Ki under setting [2] was determined as 0.027 µM.
In the case of `CCC1CCc2n[nH]c(C(=O)N[C@H]3COc4ccccc4N(C)C3=O)c2C1` (stereo partly drawn) [Example 335, 5-ethyl-N-((S)-5-methyl-4-oxo-2,3,4,5-tetrahydrobenzo[b][1,4]oxazepin-3-yl)-4,5,6,7-tetrahydro-2H-indazole-3-carboxamide], under setting [2], the Ki was found to be 0.013 µM.
For the molecule `CN1C(=O)[C@@H](NC(=O)c2ncn3ccc(C(F)(F)F)cc23)CCn2nccc21` [Example 336, (S)-N-(4-methyl-5-oxo-5,6,7,8-tetrahydro-4H-pyrazolo[1,5-a][1,3]diazepin-6-yl)-7-(trifluoromethyl)imidazo[1,5-a]pyridine-1-carboxamide], the Ki under setting [2] came to 0.231 µM.
Still for that read-out and setting: the figure for `CN1C(=O)[C@@H](NC(=O)c2n[nH]c3ccc(Cl)cc23)COc2ccccc21` [Example 338, (S)-5-chloro-N-(5-methyl-4-oxo-2,3,4,5-tetrahydrobenzo[b][1,4]oxazepin-3-yl)-1H-indazole-3-carboxamide] is 0.021 µM.
Turning to `CN1C(=O)[C@@H](NC(=O)c2ncn(Cc3c(F)cccc3F)n2)CCn2nccc21` [Example 343, 1-[(2,6-difluorophenyl)methyl]-N-[(6S)-4-methyl-5-oxo-7,8-dihydro-6H-pyrazolo[1,5-a][1,3]diazepin-6-yl]-1,2,4-triazole-3-carboxamide], the Ki under setting [3] worked out at 0.00973 µM.
For the molecule `CN1C(=O)[C@@H](NC(=O)c2nc3n(n2)[C@H](C(F)(F)F)CC3)CCn2nccc21` [Example 344, (5S)—N-[(6S)-4-methyl-5-oxo-7,8-dihydro-6H-pyrazolo[1,5-a][1,3]diazepin-6-yl]-5-(trifluoromethyl)-6,7-dihydro-5H-pyrrolo[1,2-b][1,2,4]triazole-2-carboxamide], the Ki under setting [3] worked out at 0.226 µM.
Regarding `Cc1cc(F)c2c(c1)OC[C@H](NC(=O)c1nc3n(n1)C(C(C)C)CC3)C(=O)N2` (stereo partly drawn) [Example 345, N-[(3S)-6-fluoro-8-methyl-4-oxo-3,5-dihydro-2H-1,5-benzoxazepin-3-yl]-5-isopropyl-6,7-di hydro-5H-pyrrolo[1,2-b][1,2,4]triazole-2-carboxamide], the Ki under setting [3] amounted to 0.02 µM.
